Test results from ChEMBL document CHEMBL1201861, “Genomics of Drug Sensitity in Cancer screening data, Wellcome Trust Sanger Institute”.
“And” between values parts separate entries of the source, which are not always exact repeats. Equal entries are not always repeated. Where a SMILES comes first, the peptide text is derived from it. The star is where a group is joined. Cbz = O=C(OCc1ccccc1)*

Legend:
[1] = system: NCI-H889; assay: cells; type: functional, cell-based, Homo sapiens;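 note: cell growth inhibition of the cell line, read out with a viability assay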
Description: SANGER: Inhibition of human NCI-H889 cell growth in a cell viability assay.

[2] = system: RL; assay: cells; type: functional, cell-based, Homo sapiens
Description: SANGER: Inhibition of human RL cell growth in a cell viability assay.

[3] = system: LB647-SCLC; assay: cells; type: functional, cell-based, Homo sapiens;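 note: cell growth inhibition, read out by a viability assay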
Description: SANGER: Inhibition of human LB647-SCLC cell growth in a cell viability assay.

[4] = system: CAL-148; assay: cells; type: functional, cell-based, Homo sapiens
Description: SANGER: Inhibition of human CAL-148 cell growth in a cell viability assay.

[5] = system: NCI-H1694; assay: cells; type: functional, cell-based, Homo sapiens;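 note: cell viability assay measuring inhibition of growth in human NCI-H1694 cells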
Description: SANGER: Inhibition of human NCI-H1694 cell growth in a cell viability assay.

[6] = system: NCI-H345; assay: cells; type: functional, cell-based, Homo sapiens;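 note: growth inhibition of NCI-H345 cells measured with a cell viability assay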
Description: SANGER: Inhibition of human NCI-H345 cell growth in a cell viability assay.

[7] = system: TE-441-T; assay: cells; type: functional, cell-based, Homo sapiens
Description: SANGER: Inhibition of human TE-441-T cell growth in a cell viability assay.

[8] = system: ARH-77; assay: cells; type: functional, cell-based, Homo sapiens;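 note: growth inhibition of ARH-77 cells, read out by a cell viability assay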
Description: SANGER: Inhibition of human ARH-77 cell growth in a cell viability assay.

[9] = system: NB17; assay: cells; type: functional, cell-based, Homo sapiens;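 note: growth inhibition of NB17 cells, read out with a cell viability assay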
Description: SANGER: Inhibition of human NB17 cell growth in a cell viability assay.

[10] = system: CESS; assay: SANGER: Inhibition of human CESS cell growth in a cell viability assay.; type: functional, cell-based
[11] = system: CP66-MEL; assay: cells; type: functional, cell-based; conditions: Homo sapiens;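 note: growth inhibition of CP66-MEL cells determined in a cell viability assay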
Description: SANGER: Inhibition of human CP66-MEL cell growth in a cell viability assay.

[12] = system: NB1; assay: cells; type: functional, cell-based, Homo sapiens
Description: SANGER: Inhibition of human NB1 cell growth in a cell viability assay.

[13] = system: TALL-1; assay: cells; type: functional, cell-based, Homo sapiens;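 note: growth inhibition of cultured human TALL-1 cells, read out by a cell viability assay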
Description: SANGER: Inhibition of human TALL-1 cell growth in a cell viability assay.

[14] = system: JIYOYE; assay: cells; type: functional, cell-based, Homo sapiens
Description: SANGER: Inhibition of human JiyoyeP-2003 cell growth in a cell viability assay.

[15] = system: ECC4; assay: cells; type: functional, cell-based, Homo sapiens;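 note: growth inhibition of ECC4 cells, read out with a cell viability assay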
Description: SANGER: Inhibition of human ECC4 cell growth in a cell viability assay.

[16] = system: ST486; assay: SANGER: Inhibition of human ST486 cell growth in a cell viability assay.; type: functional, cell-based
[17] = system: SNU-16; assay: cells; type: functional, cell-based, Homo sapiens;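 note: growth inhibition of human SNU-16 cells, determined with a cell viability readout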
Description: SANGER: Inhibition of human NCI-SNU-16 cell growth in a cell viability assay.

[18] = system: RL95-2; assay: cells; type: functional, cell-based, Homo sapiens;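 note: RL95-2 growth inhibition determined through a cell viability readout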
Description: SANGER: Inhibition of human RL95-2 cell growth in a cell viability assay.

[19] = system: Raji; assay: cells; type: functional, cell-based, Homo sapiens;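 note: cell viability assay measuring inhibition of Raji cell growth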
Description: SANGER: Inhibition of human Raji cell growth in a cell viability assay.

[20] = system: NCI-H1963; assay: cells; type: functional, cell-based, Homo sapiens;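 note: cell growth inhibition of the human line, determined with a cell viability assay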
Description: SANGER: Inhibition of human NCI-H1963 cell growth in a cell viability assay.

[21] = system: EW-24; assay: cells; type: functional, cell-based, Homo sapiens;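 note: human EW-24 cancer cell line, growth inhibition read out via a cell viability assay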
Description: SANGER: Inhibition of human EW-24 cell growth in a cell viability assay.

[22] = system: HCC 2998; assay: cells; type: functional, cell-based; conditions: Homo sapiens;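 note: growth inhibition of human HCC2998 cells, measured with a cell viability read-out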
Description: SANGER: Inhibition of human HCC2998 cell growth in a cell viability assay.

C[C@@H](Oc1cc(-c2cnn(C3CCNCC3)c2)cnc1N)c1c(Cl)ccc(F)c1Cl [CRIZOTINIB]
IC50 ([1]; Homo sapiens, NCI-H889): > 2000 nM | IC50 ([2]; Homo sapiens, RL): > 2000 nM | IC50 ([3]; Homo sapiens, LB647-SCLC): > 2000 nM | IC50 ([4]; Homo sapiens, CAL-148): > 2000 nM | IC50 ([5]; Homo sapiens, NCI-H1694): > 2000 nM | IC50 ([6]; Homo sapiens, NCI-H345): > 2000 nM | IC50 ([7]; Homo sapiens, TE-441-T): > 2000 nM | IC50 ([8]; Homo sapiens, ARH-77): > 2000 nM | IC50 ([9]; Homo sapiens, NB17): > 2000 nM | IC50 ([10]; Homo sapiens, CESS): > 2000 nM | IC50 [11]: > 2000 nM | IC50 ([12]; Homo sapiens, NB1): 92 nM | IC50 ([13]; Homo sapiens, TALL-1): > 2000 nM | IC50 ([14]; Homo sapiens, JIYOYE): > 2000 nM | IC50 ([15]; Homo sapiens, ECC4): > 2000 nM | IC50 ([16]; Homo sapiens, ST486): > 2000 nM | IC50 ([17]; Homo sapiens, SNU-16): > 2000 nM | IC50 ([18]; Homo sapiens, RL95-2): > 2000 nM | IC50 ([19]; Homo sapiens, Raji): > 2000 nM | IC50 ([20]; Homo sapiens, NCI-H1963): > 2000 nM | IC50 ([21]; Homo sapiens, EW-24): > 2000 nM

Nc1ccccc1NC(=O)c1ccc(CNC(=O)OCc2cccnc2)cc1 [ENTINOSTAT]
IC50 ([1]; Homo sapiens, NCI-H889): > 5000 nM | IC50 ([2]; Homo sapiens, RL): > 5000 nM | IC50 ([3]; Homo sapiens, LB647-SCLC): 367 nM | IC50 ([4]; Homo sapiens, CAL-148): 1330 nM | IC50 ([5]; Homo sapiens, NCI-H1694): 4130 nM | IC50 ([6]; Homo sapiens, NCI-H345): 2330 nM | IC50 ([7]; Homo sapiens, TE-441-T): > 5000 nM | IC50 ([8]; Homo sapiens, ARH-77): 382 nM | IC50 ([9]; Homo sapiens, NB17): 544 nM | IC50 [22]: 784 nM | IC50 ([10]; Homo sapiens, CESS): 812 nM | IC50 [11]: 2480 nM | IC50 ([12]; Homo sapiens, NB1): 1280 nM | IC50 ([13]; Homo sapiens, TALL-1): > 5000 nM | IC50 ([14]; Homo sapiens, JIYOYE): 1350 nM | IC50 ([15]; Homo sapiens, ECC4): 3970 nM | IC50 ([16]; Homo sapiens, ST486): 879 nM | IC50 ([17]; Homo sapiens, SNU-16): > 5000 nM | IC50 ([18]; Homo sapiens, RL95-2): 2110 nM | IC50 ([19]; Homo sapiens, Raji): > 5000 nM | IC50 ([20]; Homo sapiens, NCI-H1963): 116 nM | IC50 ([21]; Homo sapiens, EW-24): > 5000 nM

Cc1ccc(NC(=O)c2ccc(CN3CCN(C)CC3)cc2)cc1Nc1nccc(-c2cccnc2)n1 [IMATINIB]
IC50 ([1]; Homo sapiens, NCI-H889): > 2000 nM | IC50 ([2]; Homo sapiens, RL): > 2000 nM | IC50 ([3]; Homo sapiens, LB647-SCLC): > 2000 nM | IC50 ([4]; Homo sapiens, CAL-148): > 2000 nM | IC50 ([5]; Homo sapiens, NCI-H1694): > 2000 nM | IC50 ([6]; Homo sapiens, NCI-H345): > 2000 nM | IC50 ([7]; Homo sapiens, TE-441-T): > 2000 nM | IC50 ([8]; Homo sapiens, ARH-77): > 2000 nM | IC50 ([9]; Homo sapiens, NB17): > 2000 nM | IC50 ([10]; Homo sapiens, CESS): > 2000 nM | IC50 [11]: > 2000 nM | IC50 ([12]; Homo sapiens, NB1): > 2000 nM | IC50 ([13]; Homo sapiens, TALL-1): > 2000 nM | IC50 ([14]; Homo sapiens, JIYOYE): > 2000 nM | IC50 ([15]; Homo sapiens, ECC4): > 2000 nM | IC50 ([16]; Homo sapiens, ST486): 685 nM | IC50 ([17]; Homo sapiens, SNU-16): > 2000 nM | IC50 ([18]; Homo sapiens, RL95-2): > 2000 nM | IC50 ([19]; Homo sapiens, Raji): > 2000 nM | IC50 ([20]; Homo sapiens, NCI-H1963): > 2000 nM | IC50 ([21]; Homo sapiens, EW-24): > 2000 nM

CC(C)C[C@@H](C=O)NC(=O)[C@H](CC(C)C)NC(=O)[C@H](CC(C)C)NC(=O)OCc1ccccc1 [MG-132] (Cbz-Leu-Leu-Leu-aldehyde)
IC50 ([1]; nci-h889): > 1000 nM | IC50 ([2]; rl): > 1000 nM | IC50 ([3]; Homo sapiens, LB647-SCLC): > 1000 nM | IC50 ([3]; lb647-sclc): > 1000 nM | IC50 ([4]; cal-148): > 1000 nM | IC50 ([5]; Homo sapiens, NCI-H1694): > 1000 nM | IC50 ([5]; nci-h1694): > 1000 nM | IC50 ([6]; nci-h345): > 1000 nM | IC50 ([7]; te-441-t): > 1000 nM | IC50 ([8]; arh-77): > 1000 nM | IC50 ([9]; nb17): 430 nM and > 1000 nM | IC50 [22]: 939 nM | IC50 ([10]; cess): 171 nM and > 1000 nM | IC50 ([12]; nb1): > 1000 nM | IC50 ([13]; tall-1): > 1000 nM | IC50 ([14]; jiyoye): > 1000 nM | IC50 ([15]; ecc4): > 1000 nM | IC50 ([16]; Homo sapiens, ST486): > 1000 nM | IC50 ([16]; st486): > 1000 nM | IC50 ([17]; Homo sapiens, SNU-16): > 1000 nM | IC50 ([17]; snu-16): > 1000 nM | IC50 ([18]; rl95-2): > 1000 nM | IC50 ([19]; Homo sapiens, Raji): > 1000 nM | IC50 ([19]; raji): > 1000 nM | IC50 ([20]; Homo sapiens, NCI-H1963): > 1000 nM | IC50 ([20]; nci-h1963): > 1000 nM | IC50 ([21]; Homo sapiens, EW-24): > 1000 nM | IC50 ([21]; ew-24): > 1000 nM

COc1cc(N2CCC(N3CCN(C)CC3)CC2)ccc1Nc1ncc(Cl)c(Nc2ccccc2S(=O)(=O)C(C)C)n1 [TAE-684]
IC50 ([1]; Homo sapiens, NCI-H889): > 2000 nM | IC50 ([2]; Homo sapiens, RL): > 2000 nM | IC50 ([3]; Homo sapiens, LB647-SCLC): 1350 nM | IC50 ([4]; Homo sapiens, CAL-148): > 2000 nM | IC50 ([5]; Homo sapiens, NCI-H1694): > 2000 nM | IC50 ([6]; Homo sapiens, NCI-H345): > 2000 nM | IC50 ([7]; Homo sapiens, TE-441-T): > 2000 nM | IC50 ([8]; Homo sapiens, ARH-77): > 2000 nM | IC50 ([9]; Homo sapiens, NB17): 1010 nM | IC50 ([10]; Homo sapiens, CESS): > 2000 nM | IC50 [11]: > 2000 nM | IC50 ([12]; Homo sapiens, NB1): < 7.81 nM | IC50 ([13]; Homo sapiens, TALL-1): > 2000 nM | IC50 ([14]; Homo sapiens, JIYOYE): > 2000 nM | IC50 ([15]; Homo sapiens, ECC4): > 2000 nM | IC50 ([16]; Homo sapiens, ST486): > 2000 nM | IC50 ([17]; Homo sapiens, SNU-16): 727 nM | IC50 ([18]; Homo sapiens, RL95-2): 501 nM | IC50 ([19]; Homo sapiens, Raji): > 2000 nM | IC50 ([20]; Homo sapiens, NCI-H1963): > 2000 nM | IC50 ([21]; Homo sapiens, EW-24): > 2000 nM
